From ChEMBL document CHEMBL6109178, “Species-Dependent Metabolism of a Covalent nsP2 Protease Inhibitor with In Vivo Antialphaviral Activity” (J Med Chem, 2025)
The source made the active and inactive calls. No cut-off for these calls is given here.

How the values were obtained:
Assay type in all cases: functional, organism-based
Chikungunya virus [1] = assay: Antiviral activity against CHIKV infected in male C57BL/6 mouse assessed as reduction in viral level in right foot at 100 mg/kg, administered three times a day and measured after 48 hrs
Chikungunya virus [2] = assay: Antiviral activity against CHIKV infected in male C57BL/6 mouse assessed as reduction in viral level in serum at 100 mg/kg, administered three times a day and measured after 48 hrs
Chikungunya virus [3] = assay: Antiviral activity against CHIKV infected in male C57BL/6 mouse assessed as reduction in viral level in right quad at 100 mg/kg, administered three times a day and measured after 48 hrs
Chikungunya virus [4] = assay: Antiviral activity against CHIKV infected in male C57BL/6 mouse assessed as reduction in viral level in left foot at 100 mg/kg, administered three times a day and measured after 48 hrs
Chikungunya virus [5] = assay: Antiviral activity against CHIKV infected in male C57BL/6 mouse assessed as reduction in viral level in spleen at 100 mg/kg, administered three times a day and measured after 48 hrs
Chikungunya virus [6] = assay: Antiviral activity against CHIKV infected in male C57BL/6 mouse assessed as reduction in viral level in left quad at 100 mg/kg, administered three times a day and measured after 48 hrs

## CCOc1ccccc1-c1cc(C(=O)NC/C=C/S(C)(=O)=O)n[nH]1
Chikungunya virus [1]
  Activity: Active; Viral Level Reduced In 4 Out Of 5 Mouse
Chikungunya virus [2]
  Activity: Active; Reduction Of Small Level Of Virus Level Observed
Chikungunya virus [3]
  Activity: Active
Chikungunya virus [4]
  Activity: inactive
Chikungunya virus [5]
  Activity: Active
Chikungunya virus [6]
  Activity: Active
